The text below walks through data of US20200393447A1, “BIOSENSORS FOR MEASURING CELL SIGNALING IN STRESSED AND HEALTHY CELLS” (MONTANA MOLECULAR LLC, priority 2017, published 2020).

Type in all cases: cell-based
The test system of data set [1] is HEK293T cells. In words: Multiplex Ca2+ biosensor (SEQ ID NO: 4) in cells stressed by P23H rhodopsin mutant, carbachol stimulation. The conditions noted are these: 50 μM, P23H rhodopsin mutant co-expressed. Here is the method: In order to analyze the calcium response of cells expressing a mutant protein, HEK293T cells were transfected with both the nucleic acid construct described in FIG. 1 and a mutant rhodopsin protein (P23H). The P23H mutation in rhodopsin causes retinitis pigmentosa (Rivolta et al. 2002), an inherited form of blindness that develops gradually over the first decade of life.
The experiment in FIG. 4 was conducted the same as in FIG. 3 with the following modifications. 100 ng of a plasmid expressing the P23H rhodopsin mutation was co-transfected with the plasmid expressing SEQ ID NO: 4 and 10 ng of human muscarinic receptor 1. After 24 hours the cells were treated with 50 μM carbachol as described in Example 1 above, and the Ca^2+ signaling was monitored in the red fluorescence channel for cells identified as stressed or unstressed based on their green fluorescence intensity.

Data set [2] has as its system HEK293T cells. Kind of data set: Multiplex Ca2+ biosensor (SEQ ID NO: 4) in cells stressed with thapsigargin, carbachol stimulation. Here is the method: In order to analyze the calcium response of cells exposed to an ER-stress inducing molecule, HEK293T cells transfected with the nucleic acid construct described in FIG. 1 were exposed to thapsigargin to induce ER stress. Thapsigargin is an inhibitor of the sarcoplasmic/endoplasmic reticulum Ca^2+ ATPase that inhibits the autophagic process and induces ER stress. The calcium signaling properties of the thapsigargin-treated cells was measured as described below. HEK293T cells were transfected with SEQ ID NO: 4 as follows. 27,000 cells per well in 100 μL of EMEM media were plated onto Greiner 96-well plates coated with poly-D lysine. The cells were incubated for 24 hours at 37° C. and 5% CO2. 100 ng of plasmid DNA expressing SEQ ID NO: 4 and 10 ng of plasmid expressing human muscarinic receptor 1 were then transfected using FUGENE as follows. 100 ng of DNA expressing SEQ ID NO: 4 and 10 ng of DNA expressing human muscarinic receptor 1 were combined with 0.4 μL of FUGENE and brought to a final volume of 50 μL using OPTIMEM serum free media and incubated for 20 mins at 25° C. then added to the cells. After 16 hours the cells were treated with a final concentration of 1 μM thapsigargin for 5 hours to induce ER stress. The cells were then washed 5× with 100 μL DPBS and 150 μL of DPBS was added to the wells. The cells were imaged using a Zeiss Axiovert fluorescence microscope using standard Green Fluorescent Protein (GFP) and Red Fluorescent Protein (RFP) excitation and emission filters. Images were obtained in both the red and green channels every 2 seconds for 100 seconds. A final concentration of 50 μM carbachol was added to the wells to stimulate Gq signaling after 20 seconds, releasing intracellular Ca^2+ stores for detection by the biosensor. The images were analyzed as follows. Cells were identified as either stressed or unstressed based on their green fluorescence intensity. The Ca^2+ signaling response upon Gq stimulation was monitored in the red fluorescence channel.

Data set [3] concerns HEK293T cells. Kind of data set: RT-PCR of spliced/unspliced sensor mRNA (XBP1 intron splicing) after thapsigargin. The source says: A second nucleic acid construct (SEQ ID NO: 6) was constructed and tested. This nucleic acid construct is a red fluorescent protein (RFP) with a nuclear localization sequence, placed upstream of the XBP1 intron sequence. A T2A peptide encoding sequence is placed after the RFP sequence. This is followed by a partial sequence from the endogenous XBP1 gene that encodes a region of the protein important for regulating its stability. This partial XBP1 sequence is fused to the mNeonGreen coding sequence. Upon stress activation the XBP1 intron sequence is removed, this removes a stop codon, shifts the reading frame, and allows for translation of the XBP1-mNeonGreen fusion construct. This construct was transfected into HEK293T cells, which were then treated with 1 μM thapsigargin or DMSO vehicle control to induce ER stress. Isolated mRNA from the treated cells was then analyzed for intron splicing using RT-PCR (see van Schadewijk et al., 2012).
(§1) HEK293T cells were transduced with 25 μL of the nucleic acid construct of SEQ ID NO: 6. The construct was transduced into 48,000 HEK293T cell in FluoroBrite media and the cells were incubated at 37° C. and 5% CO2 for 16 hours. A final concentration of 1 μM thapsigargin was added to the cells. For RT-PCR analysis a total of 2 μg of total RNA was isolated form 6 wells of cells grown on 96-well Greiner plates coated in poly-D-lysine. […] PCR products were then analyzed on a 2% agarose gel. […] All images were obtained using a Zeiss Axiovert fluorescence microscope with standard RFP and GFP excitation and emission filter sets. […] The media was supplemented with 25 mM HEPES and the cells were incubated in the BioTek Synergy MX plate reader at 37° C. for 24 hours. Green fluorescence was monitored using excitation and emission wavelengths of 485 nm and 528 nm respectively, while red fluorescence was monitored using 558 nm/603 nm excitation and emission wavelengths. […] The percentage of change in green, red, and green/red ratio fluorescence was then calculated.

The test system of data set [4] is HEK293T cells. In words: Two-color stress sensor fluorescence monitored over 24 hours after thapsigargin. The settings on record: 1 μM vs DMSO, 24 hours monitoring. Here is the method:
as §1, with “poly-D-lysine. RNA was isolated using the Zymo Quick RNA microprep kit according to the manufacturer's instructions. mRNA was converted to cDNA by reverse transcription using M-MLV reverse transcriptase from Promega and an oligo dT primer according to the manufacturer's instructions.” for “poly-D-lysine.”

Data set [5] has as its system iPSC-derived peripheral neurons. Kind of data set: Two-color stress sensor (SEQ ID NO: 6): percentage of ER-stressed cells after chemotherapeutic treatment. The conditions noted are these: 24 hours of incubation. The source says: The two-color biosensor described in Example 5 above (RFP-GFP stress sensor; SEQ ID NO: 6) may be used to calculate the percent of cells undergoing ER stress, and may be used as measurement technique to detect side effects induced by chemotherapeutics. In order to determine the percentage of cells in population experiencing ER-stress following exposure to a ER-stress-inducing compound, iPSC-derived peripheral neurons were transduced with the two-color stress sensor described in Example 5 above. The cells were treated with the chemotherapeutic vincristine at concentrations of 0.0001 μM, 0.01 μM, and 0.1 μM. Measurement of the red fluorescence was used to identify transduced cells and measurement of green fluorescence identifies stressed cells. Stressed and unstressed cells were counted to quantify the percentage of stressed cells in the population.
Peri.4U peripheral neurons from Ncardia were plated onto 96-well plates according to the manufacturer's instructions. Cells were incubated for 2 days at 37° C. and 5% CO2 and the media was changed every 24 hours, using Ncardia neuro supplement media. […] Those cells that expressed both the constitutively expressed red nuclear marker and the green, stress induced, nuclear fluorescence were considered stressed, while those only expressing the red marker were considered unstressed. […]

SMILES strings stand for the structures.

On to `C[N+](C)(C)CCOC(N)=O` [carbachol], for which the “release of intracellular Ca2+ stores, stressed vs unstressed cells” value in the data set on HEK293T cells [1] is given as “blunted in the stressed cells compared to the unstressed cells”. The “Ca2+ response in ER-stressed cells compared to surrounding healthy cells” value with HEK293T cells [2] (50 μM, stressed (mNeonGreen) vs unstressed cell) is recorded as “blunted, smaller amplitude response”. Further, the “red fluorescence of Ca2+ biosensor after treatment” value with HEK293T cells [2] (50 μM, thapsigargin-treated cells) is reported as “visible increase in red fluorescence”.

As for `C/C=C(/C)C(=O)O[C@H]1C(C)=C2[C@H]([C@@H]1OC(=O)CCCCCCC)[C@@](C)(OC(C)=O)C[C@H](OC(=O)CCC)[C@@]1(O)[C@H]2OC(=O)[C@@]1(C)O` [thapsigargin], in the data set with HEK293T cells [2] (1 μM for 5 hours), the “mNeonGreen expression (ER stress marker)” value is listed as “the mNeonGreen protein due to the ER stress induced by the thapsigargin treatment”. Moreover, in the data set with HEK293T cells [3] (1 μM), the “persistence of spliced sensor band (recovery from stress)” value is reported as “disappears after 24 hours” and the “time of peak intensity of spliced sensor band post-treatment” value stood at 2.5 h. Also, in the data set with HEK293T cells [3] (1 μM vs DMSO, 30 minutes, 2.5, 6 and 24 hours), the “appearance of spliced version of the sensor (lower band)” value is on record as “appears only in the thapsigargin treated cells”. In addition, the “green stress induced fluorescence over time” value with HEK293T cells [4] is reported as “appears rapidly, then disappears by 24 hours”.

`CC[C@]1(O)C[C@H]2CN(CCc3c([nH]c4ccccc34)[C@@](C(=O)OC)(c3cc4c(cc3OC)N(C=O)[C@H]3[C@@](O)(C(=O)OC)[C@H](OC(C)=O)[C@]5(CC)C=CCN6CC[C@]43[C@@H]65)C2)C1` [vincristine]: the “percentage of stressed cells compared to control treatment” value is “statistically significant percentages of stressed cells” in data set [5] (0.01 μM, p<0.00011) and “statistically significant percentages of stressed cells” in data set [5] (0.1 μM, p<2.3e−05).
